Values after ≈ are worked out from the molar mass of the structure shown. Active and inactive are the calls of the source. The rule behind the calls is not given here.
Key:
[1] = Toxicity in human HEK293 cells assessed as effect on cell morphology at 6.25 uM incubated for 24 hrs by confocal microscopic analysis; type: cell-based; details: hek293, 24 h
[2] = Cytotoxicity against human HEK293 cells assessed as cell viability at 100 uM incubated for 24 hrs by Hoechst 33258 staining based flow cytometry; type: toxicity; details: read-out: Activity
[3] = Toxicity in human HEK293 cells assessed as effect on adherent cells at 6.25 uM incubated for 24 hrs by confocal microscopic analysis; type: cell-based; details: hek293, 24 h
[4] = Toxicity in human HEK293 cells assessed as effect on cell physiology at 6.25 uM incubated for 24 hrs by confocal microscopic analysis; type: cell-based; details: hek293, 24 h
Aspergillus fumigatus [5] = assay: Antifungal activity against Aspergillus fumigatus ATCC204305 infected in Galleria mellonella larvae assessed as increase in larval survival at 15 mg/kg measured after 6 days; type: functional, organism-based; details: time 6.0 day
Candida albicans [6] = assay: Antifungal activity against Candida albicans ATCC90028 infected in Galleria mellonella larvae assessed as larval survival at 15 mg/kg measured after 72 hrs; type: functional
Candida albicans [7] = assay: Antifungal activity against Candida albicans assessed as inhibition of fungal growth by serial dilution assay; type: functional
[8] = Stability in PBS at pH 7.4 assessed as half life by HPLC analysis; type: physicochemical
Candida albicans [9] = assay: Antifungal activity against Candida albicans ATCC90028 infected in Galleria mellonella larvae assessed as increase in larval survival at 15 mg/kg measured after 6 days; type: functional, organism-based; details: time 6.0 day
Candida albicans [10] = assay: Antifungal activity against Candida albicans ATCC90028 infected in Galleria mellonella larvae assessed as larval survival at 15 mg/kg measured after 6 days; type: functional; details: time 6 day
[11] = Toxicity in human HEK293 cells assessed as reduction in cell viability at 50 uM incubated for 24 hrs by mitotracker red staining based confocal microscopic analysis; details: hek293, 24 h
[12] = Stability in human plasma in PBS at pH 7.4 assessed as half life by HPLC analysis; type: ADME, cell-free
HEK293 [13] = assay: Cytotoxicity against human HEK293 cells at 6.25 to 12.5 uM incubated for 24 hrs by Hoechst 33258 staining based flow cytometry; type: toxicity, cell-based; details: hek293, 24 h, dose 6.25-12.5 µM
[14] = Toxicity in Galleria mellonella larvae assessed as effect on survival at 15 mg/kg measured for 144 hrs; type: organism-based; details: in vivo
HEK293 [15] = assay: Cytotoxicity against human HEK293 cells at 6.25 to 100 uM incubated for 24 hrs by Hoechst 33258 staining based flow cytometry; type: toxicity, cell-based; details: hek293, 24 h, dose 6.25-100 µM
HEK293 [16] = assay: Cytotoxicity against human HEK293 cells at 12.5 uM incubated for 24 hrs by Hoechst 33258 staining based flow cytometry; type: toxicity, cell-based; details: hek293, 24 h
Aspergillus fumigatus [17] = assay: Antifungal activity against Aspergillus fumigatus assessed as inhibition of fungal growth by serial dilution assay; type: functional
[18] = Toxicity in human HEK293 cells assessed as effect on polymerized actin signal at 50 uM incubated for 24 hrs by phalloidin conjugated AlexaFluor-488 staining based confocal microscopic analysis; type: cell-based; details: hek293, 24 h
[19] = Toxicity in human HEK293 cells assessed as effect on polymerized actin pattern at 50 uM incubated for 24 hrs by phalloidin conjugated AlexaFluor-488 staining based confocal microscopic analysis; type: cell-based; details: hek293, 24 h
[20] = Toxicity in human HEK293 cells assessed as effect on cell viability at 50 uM incubated for 24 hrs by confocal microscopic analysis; type: cell-based; details: hek293, 24 h
[21] = Toxicity in human HEK293 cells assessed as reduction in cell confluency at 50 uM incubated for 24 hrs by mitotracker red staining based confocal microscopic analysis; design: scale not given: the % may be the effect or the level left; details: hek293, 24 h
Aspergillus fumigatus [22] = assay: Antifungal activity against Aspergillus fumigatus ATCC204305 infected in Galleria mellonella larvae assessed as larval survival at 15 mg/kg measured after 6 days; type: functional; details: time 6 day
[23] = Toxicity in human HEK293 cells assessed as effect on mitochondrial morphology at 50 uM incubated for 24 hrs by mitotracker red staining based confocal microscopic analysis; type: cell-based; details: hek293, 24 h
[24] = Toxicity in Galleria mellonella larvae assessed as larvae death at 15 mg/kg measured for 144 hrs; type: organism-based; details: in vivo
Candida albicans [25] = assay: Antifungal activity against Candida albicans SN250 assessed as inhibition of fungal growth by broth dilution assay; type: functional
Candida albicans [26] = assay: Antifungal activity against Candida albicans K1 assessed as inhibition of fungal growth; type: functional

Row | Compound | viability at 24 h, 100 µM [2] [%] | Activity (Aspergillus fumigatus [5]) | half-life [8] [h] | Activity (Candida albicans [9]) | Activity (Candida albicans [10]) [%] | half-life [12] [h] | Activity (HEK293 [13]) | Activity [14] | Activity (HEK293 [16]) | MIC90 (Aspergillus fumigatus [17]) [mg/L] | Activity [21] | further results
1 | C[C@@H]1[C@H](O)[C@@H](C)/C=C/C=C/C=C/C=C/C=C/C=C/C=C/[C@H](O[C@@H]2O[C@H](C)[C@@H](O)[C@H](N)[C@@H]2O)C[C@@H]2O[C@](O)(C[C@@H](O)C[C@@H](O)[C@H](O)CC[C@@H](O)C[C@@H](O)CC(=O)O[C@H]1C)C[C@H](O)[C@H]2C(=O)O [AMPHOTERICIN B] | 0 | – | – | – | – | – | – | – | – | – | – | Activity [1]: Toxic; Activity [3]: Toxic; Activity [4]: Toxic
2 | CCOC(=O)[C@H](C)OP(=O)(OCC)Oc1ccc(COC(=O)OCOC(=O)[C@H]2[C@@H]3C[C@@H](O[C@@H]4O[C@H](C)[C@@H](O)[C@H](N)[C@@H]4O)/C=C/C=C/C=C/C=C/C=C/C=C/C=C/[C@H](C)[C@@H](O)[C@@H](C)[C@H](C)OC(=O)C[C@H](O)C[C@H](O)CC[C@@H](O)[C@H](O)C[C@H](O)C[C@](O)(C[C@@H]2O)O3)cc1 (stereo partly drawn) | – | Active | 2.8 | Active | 40 | 2.2 | Toxic | Non-toxic | Toxic | 2 (≈ 1.52 µM) | – | Activity (Candida albicans [6]): 70%; MIC90 (Candida albicans [7]): 2 mg/L (≈ 1.52 µM); Activity [11]: Toxic; Activity (HEK293 [15]): Toxic
3 | CCOC(=O)[C@H](C)OP(=O)(OCC)Oc1ccc(COC(=O)N[C@@H]2[C@H](O)[C@H](O[C@H]3/C=C/C=C/C=C/C=C/C=C/C=C/C=C/[C@H](C)[C@@H](O)[C@@H](C)[C@H](C)OC(=O)C[C@H](O)C[C@H](O)CC[C@@H](O)[C@H](O)C[C@H](O)C[C@]4(O)C[C@H](O)[C@@H](C(=O)O)[C@H](C3)O4)O[C@H](C)[C@H]2O)cc1 (stereo partly drawn) | ~78 | Active | 18 | Active | 10 | 4.5 | Toxic | Non-toxic | Toxic | > 16 | ~ 50% | Activity [18]: Non-toxic; Activity [19]: Non-toxic; Activity [20]: Non-toxic; Activity (Aspergillus fumigatus [22]): 40%; Activity [23]: Non-toxic
4 | CCOP(=O)(OCCOC(C)=O)Oc1ccc(COC(=O)N[C@@H]2[C@H](O)[C@H](O[C@H]3/C=C/C=C/C=C/C=C/C=C/C=C/C=C/[C@H](C)[C@@H](O)[C@@H](C)[C@H](C)OC(=O)C[C@H](O)C[C@H](O)CC[C@@H](O)[C@H](O)C[C@H](O)C[C@]4(O)C[C@H](O)[C@@H](C(=O)O)[C@H](C3)O4)O[C@H](C)[C@H]2O)cc1 (stereo partly drawn) | ~86 | Active | 35 | Active | 10 | 1.3 | Toxic | Non-toxic | Toxic | > 16 | ~ 50% | Activity [18]: Non-toxic; Activity [24]: Toxic; Activity [19]: Non-toxic; Activity [20]: Non-toxic; Activity [23]: Non-toxic
5 | C[C@@H]1[C@H](O)[C@@H](C)/C=C/C=C/C=C/C=C/C=C/C=C/C=C/[C@H](O[C@@H]2O[C@H](C)[C@@H](O)[C@H](N)[C@@H]2O)C[C@@H]2O[C@](O)(C[C@@H](O)C[C@@H](O)[C@H](O)CC[C@@H](O)C[C@@H](O)CC(=O)O[C@H]1C)C[C@H](O)[C@H]2NC(=O)C(CO)CO | – | – | – | – | – | – | – | – | – | – | – | MIC (Candida albicans [25]): 120 mg/L (≈ 120 µM)
6 | C[C@@H]1[C@H](O)[C@@H](C)/C=C/C=C/C=C/C=C/C=C/C=C/C=C/[C@H](O[C@@H]2O[C@H](C)[C@@H](O)[C@H](N)[C@@H]2O)C[C@@H]2O[C@](O)(C[C@@H](O)C[C@@H](O)[C@H](O)CC[C@@H](O)C[C@@H](O)CC(=O)O[C@H]1C)C[C@H](O)[C@H]2NC(=O)NCCN | – | – | – | – | – | – | – | – | – | – | – | MIC (Candida albicans [26]): 500 mg/L (≈ 510 µM)
7 | CC(C)OC(=O)OCOC(=O)[C@H]1[C@@H]2C[C@@H](O[C@@H]3O[C@H](C)[C@@H](O)[C@H](N)[C@@H]3O)/C=C/C=C/C=C/C=C/C=C/C=C/C=C/[C@H](C)[C@@H](O)[C@@H](C)[C@H](C)OC(=O)C[C@H](O)C[C@H](O)CC[C@@H](O)[C@H](O)C[C@H](O)C[C@](O)(C[C@@H]1O)O2 | – | Active | 7.6 | Active | 10 | 3.3 | Toxic | Non-toxic | Toxic | > 16 | ~ 10% | MIC90 (Candida albicans [7]): 2 mg/L (≈ 1.92 µM); Activity (HEK293 [15]): Non-toxic

Source: ChEMBL document CHEMBL6087435, “Prodrugging fungicidal amphotericin B significantly decreases its toxic effects” (Eur J Med Chem, 2025)
